# Measured values reported in US20100204153A1, “USE OF BAND 3 PROTEIN (824-829) AND/OR MELANOCYTE-STIMULATING HORMONE RELEASE-INHIBITING FACTOR AS A THERAPEUTIC AGENT IN THE TREATMENT OF PSEUDOMONAS AERUGINOSA INFECTION” (priority 2007, published 2010).
# Where no end group is shown, it is not given here.
# Experiments:
# [1] = tested on: Primary Human endothelial cells (HUVEC); assay: Endothelial cell migration assay; assay type: cell-based; details: 10 micrograms per ml; 22 hours
# Procedure: Thereafter, designated concentration of testing peptides—10 micrograms per ml—was added in duplicate wells.
# Pseudomonas aeruginosa = Pseudomonas aeruginosa assay; assay type: cell-based; details: 10 micrograms per ml; 5×10^5 CFU/mL; combination 0.95:1.05 mole and all other molar ratios from 1:100 to 100:1
# [2] = tested on: hepatitis B virus (HBV) ayw strain; assay: HBV assay in HepG2-2.2.15 cells (TaqMan PCR of secreted HBV DNA); assay type: cell-based; details: 10 micrograms per ml; six days
# murine spleen cells = assay: Th1/Th2 cytokine profiling assay; assay type: cell-based, Balb/c mice; details: 10 micrograms per ml; Ovalbumin restimulation, 72 hours; combination 0.95:1.05 mole
# HUVEC = assay: Endothelial tube formation assay; assay type: cell-based, human; details: 10 micrograms per ml; 20 hours
# From the text: Positive control was vehicle only.
# HCMV strain AD169 = assay: HCMV plaque formation assay in MRC-5 cells; assay type: cell-based; details: for inhibition of HCMV plaque formation as compared to the virus control experiment: 10 micrograms per ml, 7-10 days
# HIV-1IIIB = assay: HIV-1 antiviral assay in CEM-SS cells
molecule,measurement,setting,value
Pro-Leu-Gly-NH2 [Peptide 2],induction of the migration of endothelial cells,[1],8%
same,inhibition of the growth of Pseudomonas aeruginosa,Pseudomonas aeruginosa,100%
same,inhibition of HBV replication as compared to the virus control infection,[2],10.9%
same,change of the production of IFN-γ,murine spleen cells,did not significantly change
same,change of the production of TNF-alpha,murine spleen cells,did not significantly change
same,decrease of the production of IL-2,murine spleen cells,100%
same,decrease of the production of IL-4,murine spleen cells,100%
same,decrease of the production of IL-5,murine spleen cells,42.3%
same,inhibition of the tube formation of human endothelial cells,HUVEC,16%
same,inhibition of HCMV plaque formation as compared to the virus control experiment,HCMV strain AD169,did not inhibit
CC(C)(C)NC(=O)[C@@H]1CN(Cc2cccnc2)CCN1C[C@@H](O)C[C@@H](Cc1ccccc1)C(=O)N[C@H]1c2ccccc2C[C@H]1O [indinavir],antiviral activity of positive control compounds (HIV-1),HIV-1IIIB,expected levels of antiviral activity
Cc1cn([C@H]2C[C@H](N=[N+]=[N-])[C@@H](CO)O2)c(=O)[nH]c1=O [AZT],antiviral activity of positive control compounds (HIV-1),HIV-1IIIB,expected levels of antiviral activity
"Nc1nc(O)c2ncn(COC(CO)CO)c2n1 [Ganciclovir, reference compound]",antiviral activity of positive control compound (HCMV),HCMV strain AD169; positive control compound,expected levels of antiviral activity
Tyr-Val-Lys-Arg-Val-Lys-OH (YVKRVK-OH) [Peptide 1],inhibition of the migration of human endothelial cells,[1],8%
same,inhibition of the growth of Pseudomonas aeruginosa,Pseudomonas aeruginosa,100%
same,inhibition of HBV replication as compared to the virus control infection,[2],did not inhibit
same,change of the production of IFN-γ,murine spleen cells,did not significantly change
same,change of the production of TNF-alpha,murine spleen cells,did not significantly change
same,decrease of the production of IL-2,murine spleen cells,41.9%
same,decrease of the production of IL-4,murine spleen cells,58.2%
same,decrease of the production of IL-5,murine spleen cells,37.4%
same,inhibition of the tube formation of human endothelial cells,HUVEC,21%
same,inhibition of HCMV plaque formation as compared to the virus control experiment,HCMV strain AD169,did not inhibit
